Laboratory results: publication PMC12713097, “ARL3 Enhances ERα Stability via USP10 Deubiquitination to Promote Endocrine Resistance and Drive Mitochondrial Metabolic Reprogramming in HR+ Breast Cancer” (Advanced Science, 2025)
pKd: −log10 of the molar value.

Molecular target: ARL3 (Homo sapiens, UniProt P36405)
Experiment: microscale thermophoresis (Monolith NT.[…])
Assay type: binding

Sequence of ARL3 (P36405 2-182): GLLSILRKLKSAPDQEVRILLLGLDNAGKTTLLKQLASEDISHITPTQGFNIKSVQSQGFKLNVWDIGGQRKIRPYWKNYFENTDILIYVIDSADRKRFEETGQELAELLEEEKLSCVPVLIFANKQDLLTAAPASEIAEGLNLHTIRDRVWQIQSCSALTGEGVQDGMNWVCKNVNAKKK

Q: How did the pKd turn out when `Cc1c(-c2ccc(N3CCc4cccc(C(=O)Nc5nc6ccccc6s5)c4C3)nc2C(=O)O)cnn1CC12CC3CC(CC(C3)C1)C2` [A-1331852] was run?
A: 4.92
